Drawing on patent publication US9328106B2, “Cyclic ether pyrazol-4-yl-heterocyclyl-carboxamide compounds and methods of use” (Genentech, Inc., priority 2012, dated 2016), this text covers Ki, EC50 and IC50 for 24 compounds.

SMILES strings stand for the structures. pEC50, pIC50, pKi: −log10 of the molar value. Read-outs that look alike come from different tables or passages of the source.

One assay deals with PIM1 (Homo sapiens (Human), UniProt P11309). The experiment in a line: biochemical. Format: biochemical. The settings on record: 20 pM PIM1, 1 μM FAM-peptide, 10 μM ATP, 90 minutes at room temperature; read-out: PIM1 LC3K (KI).
In assay [1] the test system is MM1.S (multiple myeloma) cells. Kind of assay: In vitro cell proliferation, MM1.S multiple myeloma cells.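 Further: cells cultured in RPMI with 10% FBS and 2 mM L-Glutamine, seeded in 384-well plates, exposed to compound, cell viability measured by luminescence after CellTiter-Glo addition.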 Format: cell-based. The note with it: Homo sapiens, MM1.S, 72 h, read-out: Prolif MM1S ATP (EC50).
Another assay concerns BaF3 PIM1 cells. The experiment in a line: In vitro cell proliferation, BaF3 transfected with PIM1.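 Further: murine IL-3-dependent pro-B BaF3 cells transfected with PIM1, compound exposure overnight at 37 °C under 5% CO2, viability read as luminescence.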 It is filed as cell-based, murine. The settings on record: Mus musculus.
In a further assay the test system is BaF3 parental cells. Kind of assay: In vitro cell proliferation, BaF3 parental line + IL3.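 Further: BaF3 parental cells are murine IL-3 dependent pro-B cells grown with 2 ng/mL mIL-3, 384-well format, viability read by luminescence.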 The settings on record: Mus musculus. Format: cell-based, murine.
The mark [2] stands for this setting: BaF3, read-out: Prolif BaF3 PIM1 (IC50), BaF3 PIM1 cells, incubated overnight, CELL TITER GLO.
Where [3] appears, read: MM1.S cells, 72 hours, CELL TITER GLO.
[4] abbreviates: BaF3, BaF3 parental, mIL-3, incubated overnight, CELL TITER GLO, read-out: Prolif BaF3 IL3 (IC50).
Setting [5] is: BaF3 PIM1 cells, incubated overnight, CELL TITER GLO, read-out: Prolif BaF3 PIM1 (IC50).

PIM1, sequence (P11309 whole entry): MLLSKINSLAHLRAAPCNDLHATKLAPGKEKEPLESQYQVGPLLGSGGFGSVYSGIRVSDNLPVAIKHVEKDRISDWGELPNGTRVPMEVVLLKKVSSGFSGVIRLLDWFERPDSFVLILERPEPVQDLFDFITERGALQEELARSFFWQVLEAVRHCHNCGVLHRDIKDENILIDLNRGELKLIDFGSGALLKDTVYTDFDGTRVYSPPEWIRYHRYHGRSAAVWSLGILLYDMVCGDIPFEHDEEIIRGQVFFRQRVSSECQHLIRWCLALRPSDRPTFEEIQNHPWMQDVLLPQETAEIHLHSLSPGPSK
Description for BaF3 PIM1 cells: BaF3 parental line was obtained from the DSMZ repository. […] Media for BaF3 parental line contained RPMI, 10% FBS, 2 mM L-Glutamine, 2 ng/mL mIL-3. Media for BaF3 PIM1 & 2 lines contained RPMI, 10% FBS, 2 mM L-Glutamine, 250 μg/mL. Media for MM1.S (multiple myeloma cells) line contained RPMI, 10% FBS, 2 mM L-Glutamine.
BaF3, a murine interleukin-3 dependent pro-B cell line, parental cells, BaF3 PIM1 cells, BaF3 PIM2 cells, and MM1.S (multiple myeloma) cells were seeded at 2 k/well, 5 k/well, 5 k/well, and 10 k/well respectively, in a 384-well plate, at 45 μL/well. Test compound was added at 5 μL/well. BaF3 cells (parental and transfected) were incubated overnight, while MM1.S cells were incubated for 72 hours at 37° C., 5% CO2. CELL TITER GLO® Reagent (Promega) was added at 50 μL/well, the plates were incubated for 30 minutes, and their luminescence read on an HT Analyst. IC50/EC50 values for the test compound were calculated.

In the case of `CO[C@@H]1COC(c2c(NC(=O)c3nc(-c4c(F)cccc4F)sc3N)cnn2C)CC[C@H]1N` (stereo partly drawn) [Example 126, 5-amino-N-(5-((5R,6S)-5-amino-6-methoxyoxepan-2-yl)-1-methyl-1H-pyrazol-4-yl)-2-(2,6-difluorophenyl)thiazole-4-carboxamide], at PIM1, the pKi (in general, the negative decadic logarithm of the Ki, by convention in mol/L) was 10.59. Moreover, the pEC50 (in general, −log10 of the EC50, conventionally taken in molar units) in assay [1] was 7.66. The pIC50 (usually −log10 of the IC50, conventionally taken in molar units) with BaF3 PIM1 cells (setting [2]) was 7.60; in the assay on BaF3 parental cells (BaF3, read-out: Prolif BaF3 IL3 (IC50)), 4.60.

As to `CC(C)Oc1ncccc1-c1nc(C(=O)Nc2cnn(C)c2[C@@H]2CC[C@@H](N)[C@H](F)CO2)cs1` [Example 384, N-[5-[(2S,5R,6S)-5-amino-6-fluoro-oxepan-2-yl]-1-methyl-pyrazol-4-yl]-2-(2-isopropoxy-3-pyridyl)thiazole-4-carboxamide], the pKi at PIM1 is 8.01. Further, the pEC50 in assay [1] (setting [3]) is 5.36. For the same compound, the figures for the pIC50 with BaF3 PIM1 cells (setting [2]) and with BaF3 parental cells (setting [4]) were 5.25 and 5.14, respectively.

Consider `C[C@H]1O[C@@H](c2c(NC(=O)c3ccc(F)c(-c4c(F)cccc4F)n3)cnn2C)C[C@@H](N)[C@]1(C)O` (single isomer, unassigned) [Example 343], for which the pEC50 in assay [1] (setting [3]) was 6.11. The pIC50 is 6.47 in the assay on BaF3 PIM1 cells (setting [5]) and 4.89 in the assay with BaF3 parental cells (setting [4]).

`C[C@H]1O[C@@H](c2c(NC(=O)c3nc(-c4c(F)cccc4F)sc3N)cnn2C)C[C@@H](N)[C@]1(C)O` (single isomer, unassigned) [Example 345]: in assay [1] (setting [3]), the negative-log EC50 (pEC50) is < 4.60. For the same compound, the figures for the pIC50 in the assay on BaF3 PIM1 cells (setting [5]) and in the assay with BaF3 parental cells (setting [4]) were 5.17 and < 4.60, respectively.

On to `Cn1ncc(NC(=O)c2nc(-c3c(F)cccc3F)sc2N)c1[C@@]12CC[C@H](N)[C@@H](CC1)O2` [Example 117, 5-amino-N-(5-((1R,4S,5R)-4-amino-8-oxabicyclo[3.2.1]octan-1-yl)-1-methyl-1H-pyrazol-4-yl)-2-(2,6-difluorophenyl)thiazole-4-carboxamide], for which the pEC50 in assay [1] (setting [3]) was 6.91. The pIC50 in the assay with BaF3 PIM1 cells (setting [2]) is 7.51.

Consider `C[C@@H]1O[C@H](c2c(NC(=O)c3ccc(F)c(-c4c(F)cccc4F)n3)cnn2C)C[C@H](N)[C@@]1(C)O` [Example 344, N-(5-((2S,4S,5R,6S)-4-amino-5-hydroxy-5,6-dimethyltetrahydro-2H-pyran-2-yl)-1-methyl-1H-pyrazol-4-yl)-6-(2,6-difluorophenyl)-5-fluoropicolinamide], for which the pEC50 in assay [1] (setting [3]) was 5.01. The figures for the negative logarithm of the IC50 (pIC50) in the assay on BaF3 PIM1 cells (setting [5]) and in the assay on BaF3 parental cells (setting [4]) were 5.05 and 4.85, respectively.

Regarding `C[C@@H]1O[C@H](c2c(NC(=O)c3nc(-c4c(F)cccc4F)sc3N)cnn2C)C[C@H](N)[C@@]1(C)O` [Example 346, 5-amino-N-(5-((2S,4S,5R,6S)-4-amino-5-hydroxy-5,6-dimethyltetrahydro-2H-pyran-2-yl)-1-methyl-1H-pyrazol-4-yl)-2-(2,6-difluorophenyl)thiazole-4-carboxamide], the pEC50 in assay [1] (setting [3]) was 5.37. The values for the pIC50 with BaF3 PIM1 cells (setting [5]) and in the assay on BaF3 parental cells (setting [4]) were 6.29 and < 4.60, respectively.

In the case of `Cc1ccc(-c2nc(C(=O)Nc3cnn(C)c3[C@@H]3CC[C@@H](N)[C@H](F)CO3)cs2)c(F)c1` [Example 316, N-(5-((2S,5R,6S)-5-amino-6-fluorooxepan-2-yl)-1-methyl-1H-pyrazol-4-yl)-2-(2-fluoro-4-methylphenyl)thiazole-4-carboxamide], the pEC50 in assay [1] (setting [3]) is 6.16. The pIC50 in the assay with BaF3 PIM1 cells (setting [5]) is 6.90; in the assay on BaF3 parental cells (setting [4]), 5.03.

As to `Cn1ncc(NC(=O)c2csc(-c3n[nH]c4c3CCCC4)n2)c1[C@@H]1CC[C@@H](N)[C@H](F)CO1` [Example 374, N-(5-((2S,5R,6S)-5-amino-6-fluorooxepan-2-yl)-1-methyl-1H-pyrazol-4-yl)-2-(4,5,6,7-tetrahydro-1H-indazol-3-yl)thiazole-4-carboxamide], the pKi on PIM1 was 10.64. Further, the pIC50 in the assay on BaF3 parental cells (setting [4]) was 4.88.

As for `Cn1ncc(NC(=O)c2nc(-c3c(Cl)cccc3C(F)(F)F)sc2N)c1[C@@H]1CC[C@@H](N)[C@H](F)CO1` [Example 329, 5-amino-N-(5-((2S,5R,6S)-5-amino-6-fluorooxepan-2-yl)-1-methyl-1H-pyrazol-4-yl)-2-(2-chloro-6-(trifluoromethyl)phenyl)thiazole-4-carboxamide], the pEC50 in assay [1] (setting [3]) is 5.77. For the same compound, the pIC50 in the assay with BaF3 PIM1 cells (setting [2]) was 6.46; with BaF3 parental cells (setting [4]), 5.62.

As to `Cn1ncc(NC(=O)c2nc(-c3c(F)cccc3F)sc2N)c1[C@]12CC[C@H](O1)[C@@H](N)CC2` [Example 115, 5-amino-N-(5-((1S,4S,5S)-4-amino-8-oxabicyclo[3.2.1]octan-1-yl)-1-methyl-1H-pyrazol-4-yl)-2-(2,6-difluorophenyl)thiazole-4-carboxamide], the pIC50 in the assay on BaF3 PIM1 cells (setting [2]) is 7.72.

For `Cc1nn(C)c(F)c1-c1nc(C(=O)Nc2cnn(C)c2[C@@H]2CC[C@@H](N)[C@H](F)CO2)cs1` [Example 286, N-(5-((2S,5R,6S)-5-amino-6-fluorooxepan-2-yl)-1-methyl-1H-pyrazol-4-yl)-2-(5-fluoro-1,3-dimethyl-1H-pyrazol-4-yl)thiazole-4-carboxamide], the pEC50 in assay [1] (setting [3]) is 4.90. Besides, the pIC50 with BaF3 PIM1 cells (setting [5]) was 6.02; in the assay on BaF3 parental cells (setting [4]), 4.95.

Consider `Cn1ncc(NC(=O)c2csc(-c3c(F)cc(C(C)(F)F)cc3F)n2)c1[C@@H]1CC[C@@H](N)[C@H](F)CO1` [Example 394, N-(5-((2S,5R,6S)-5-amino-6-fluorooxepan-2-yl)-1-methyl-1H-pyrazol-4-yl)-2-(4-(1,1-difluoroethyl)-2,6-difluorophenyl)thiazole-4-carboxamide], for which the negative logarithm of the Ki (pKi) at PIM1 is 10.74.

Turning to `CO[C@H]1CCC(c2c(NC(=O)c3nc(-c4c(F)cccc4F)sc3N)cnn2C)OC[C@@H]1N` (stereo partly drawn) [Example 123, 5-amino-N-(5-((5S,6S)-6-amino-5-methoxyoxepan-2-yl)-1-methyl-1H-pyrazol-4-yl)-2-(2,6-difluorophenyl)thiazole-4-carboxamide], the pKi on PIM1 was 9.90.

Regarding `Cn1ncc(NC(=O)c2csc(-c3ccc(C4(C)COC4)cc3F)n2)c1[C@@H]1CC[C@@H](N)[C@H](F)CO1` [Example 393, N-(5-((2S,5R,6S)-5-amino-6-fluorooxepan-2-yl)-1-methyl-1H-pyrazol-4-yl)-2-(2-fluoro-4-(3-methyloxetan-3-yl)phenyl)thiazole-4-carboxamide], the pKi on PIM1 is 11.52.

For `CC[C@]1(CN)CO[C@H](c2c(NC(=O)c3nc(-c4c(F)cccc4F)sc3N)cnn2C)OC1` [Example 173, 5-Amino-N-[5-[5-(aminomethyl)-5-ethyl-1,3-dioxan-2-yl]-1-methyl-pyrazol-4-yl]-2-(2,6-difluorophenyl)thiazole-4-carboxamide], the pKi at PIM1 was 10.82.

Consider `Cn1ncc(NC(=O)c2nc(-c3c(F)cccc3F)sc2N)c1C1=CCOCC1` [Example 101, 5-amino-2-(2,6-difluorophenyl)-N-[5-(3,6-dihydro-2H-pyran-4-yl)-1-methyl-pyrazol-4-yl]thiazole-4-carboxamide], for which the pKi at PIM1 is 9.31.

As for `Cn1ncc(NC(=O)c2csc(-c3ccncc3F)n2)c1[C@@H]1CC[C@@H](N)[C@H](F)CO1` [Example 300, N-(5-((2S,5R,6S)-5-amino-6-fluorooxepan-2-yl)-1-methyl-1H-pyrazol-4-yl)-2-(3-fluoropyridin-4-yl)thiazole-4-carboxamide], the negative logarithm of the Ki (pKi) on PIM1 was 9.87.

Turning to `CO[C@H]1CO[C@H](c2c(NC(=O)c3nc(-c4cc(C)ccc4F)sc3N)cnn2C)CC[C@H]1N` [Example 264, 5-amino-N-(5-((2S,5R,6R)-5-amino-6-methoxyoxepan-2-yl)-1-methyl-1H-pyrazol-4-yl)-2-(2-fluoro-5-methylphenyl)thiazole-4-carboxamide], at PIM1, the pKi was 10.70.

In the case of `Cc1ccc(F)c(-c2nc(C(=O)Nc3cnn(C)c3[C@@H]3CC[C@@H](N)[C@H](F)CO3)cs2)c1` [Example 238, N-(5-((2S,5R,6S)-5-amino-6-fluorooxepan-2-yl)-1-methyl-1H-pyrazol-4-yl)-2-(2-fluoro-5-methylphenyl)thiazole-4-carboxamide], the negative-log Ki (pKi) on PIM1 was 10.32.

As for `CC(O)c1cc(F)c(-c2nc(C(=O)Nc3cnn(C)c3[C@@H]3CC[C@@H](N)[C@H](F)CO3)cs2)c(F)c1` (stereo partly drawn) [Example 294, N-(5-((2S,5R,6S)-5-amino-6-fluorooxepan-2-yl)-1-methyl-1H-pyrazol-4-yl)-2-(2,6-difluoro-4-(1-hydroxyethyl)phenyl)thiazole-4-carboxamide], on PIM1, the pKi is 10.54.

Take `Cn1ncc(NC(=O)c2csc(-c3ccncc3F)n2)c1[C@@H]1CC[C@@H](N)[C@H](F)CO1` [Example 240, N-(5-((2S,5R,6S)-5-amino-6-fluorooxepan-2-yl)-1-methyl-1H-pyrazol-4-yl)-2-(3-fluoropyridin-4-yl)thiazole-4-carboxamide]: on PIM1, the pKi was 9.47.

In the case of `Cn1ncc(NC(=O)c2nc(C3=CCCC3)sc2N)c1[C@@H]1CC[C@@H](N)[C@@H](F)CO1` [Example 271, 5-amino-N-(5-((2S,5R,6R)-5-amino-6-fluorooxepan-2-yl)-1-methyl-1H-pyrazol-4-yl)-2-(cyclopent-1-en-1-yl)thiazole-4-carboxamide], at PIM1, the negative logarithm of the Ki (pKi) is 10.21.

On to `Cn1ncc(NC(=O)c2nc(-c3c(F)cccc3F)sc2N)c1C1CC(F)(F)CC(N)CO1` (single isomer, unassigned) [Example 114, 5-amino-N-[5-(6-amino-4,4-difluoro-oxepan-2-yl)-1-methyl-pyrazol-4-yl]-2-(2,6-difluorophenyl)thiazole-4-carboxamide], for which the pKi on PIM1 was 10.49.
